These results are taken from ChEMBL document CHEMBL1201862, “PubChem BioAssay data set” (2004).

Calls of active or inactive are those of the source. Bounds are passed on as bounds.

Test [1] addresses T1, Heat shock factor protein 1 (Mus musculus, UniProt P38532).
T1 sequence (P38532 whole entry): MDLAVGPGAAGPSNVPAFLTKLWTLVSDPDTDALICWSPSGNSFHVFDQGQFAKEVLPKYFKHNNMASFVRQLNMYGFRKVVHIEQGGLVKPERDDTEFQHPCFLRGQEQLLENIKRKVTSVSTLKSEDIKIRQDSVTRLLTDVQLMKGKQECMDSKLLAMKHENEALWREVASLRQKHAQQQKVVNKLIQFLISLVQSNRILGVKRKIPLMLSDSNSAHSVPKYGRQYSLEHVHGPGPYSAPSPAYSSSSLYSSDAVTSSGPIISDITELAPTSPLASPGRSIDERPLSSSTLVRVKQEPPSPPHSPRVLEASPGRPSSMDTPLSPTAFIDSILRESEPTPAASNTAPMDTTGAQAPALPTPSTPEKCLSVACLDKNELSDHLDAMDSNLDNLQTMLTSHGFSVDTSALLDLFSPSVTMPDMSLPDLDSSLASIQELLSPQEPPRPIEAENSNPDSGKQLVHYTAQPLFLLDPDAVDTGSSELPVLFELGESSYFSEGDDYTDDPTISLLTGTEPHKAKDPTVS
In words: inhibition of MG132-induced HSE-luciferase signal, confirmation, cell-based, NIH3T3, luminescence, dose retest (AID 2382).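 Also: NIH3T3 fibroblasts with HSF1-driven luciferase reporter stressed by proteasome inhibitor MG132; luminescence from HSF1-driven luciferase expression after 8 hours of MG132 stress.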 In kind it is functional.

In test [2] the target is T1, Heat shock factor protein 1. In words: HSF1 potentiators in luciferase reporter cells, confirmation, cell-based, NIH3T3, luminescence, dose retest (AID 435004).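 Also: stress induced by proteasome inhibitor MG132 added 30 min after compound; luciferase reporter driven by HSF1 response element in NIH3T3 cells; actives raise luminescence as potentiators of the MG132 stress response.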 In kind it is functional.
Test [3] addresses Cytochrome P450 2D6 (Homo sapiens, UniProt P10635).
Test [4] concerns the target Cytochrome P450 2C19 (Homo sapiens, UniProt P33261). In words: Cytochrome panel assay with activity outcomes. Panel member name: p450-cyp2c19 Compounds with AC50 equal or less than 10 uM are considered active. As to conditions: read-out: AC50. The test is classed as functional.
Test [5] concerns the target T2, Cytochrome P450 1A2 (Homo sapiens, UniProt P05177).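 Also: PubChem cytochrome P450 panel assay, CYP1A2 panel member.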
T2 sequence (P05177 whole entry): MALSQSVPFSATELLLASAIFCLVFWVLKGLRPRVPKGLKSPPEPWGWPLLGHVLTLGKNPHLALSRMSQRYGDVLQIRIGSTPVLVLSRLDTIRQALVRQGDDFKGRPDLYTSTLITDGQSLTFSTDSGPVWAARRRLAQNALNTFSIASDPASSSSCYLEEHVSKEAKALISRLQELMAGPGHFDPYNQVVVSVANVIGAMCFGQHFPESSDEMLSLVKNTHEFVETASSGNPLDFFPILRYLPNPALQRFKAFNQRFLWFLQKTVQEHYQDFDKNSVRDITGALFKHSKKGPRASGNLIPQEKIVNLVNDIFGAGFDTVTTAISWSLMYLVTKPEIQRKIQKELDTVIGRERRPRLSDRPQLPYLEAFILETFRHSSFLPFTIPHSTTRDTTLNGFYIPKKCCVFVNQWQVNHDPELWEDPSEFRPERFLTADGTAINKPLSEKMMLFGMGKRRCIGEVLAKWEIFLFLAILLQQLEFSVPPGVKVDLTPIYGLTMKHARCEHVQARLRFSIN

A short description of test [6]: inhibitors of firefly luciferase expression or activity, dose response, H4 neuroglioma cells, luminescence (AID 1990). In kind it is functional, cell-based.
A short description of test [7]: Luminescence Cell-Based Dose Response HTS to Identify Inhibitors of 5'UTR Stem-Loop Driven Prion Protein mRNA Translation in H4 Neuroglioblastoma Cells. [Related pubchem assays: 1827 (Project Summary), 1813 (Primary HTS)]. The test is classed as functional.
The nature of test [8]: inhibitors of SNCA 5'UTR-driven reporter translation, confirmation, H4 neuroglioma cells, luminescence (AID 1988). In kind it is functional, cell-based.

The EC50 is the concentration needed to bring the measured effect to its halfway point. One may read the AC50 as the concentration at which the activity in the assay is half-maximal.

Chain of Cytochrome P450 2C19 (P33261 whole entry): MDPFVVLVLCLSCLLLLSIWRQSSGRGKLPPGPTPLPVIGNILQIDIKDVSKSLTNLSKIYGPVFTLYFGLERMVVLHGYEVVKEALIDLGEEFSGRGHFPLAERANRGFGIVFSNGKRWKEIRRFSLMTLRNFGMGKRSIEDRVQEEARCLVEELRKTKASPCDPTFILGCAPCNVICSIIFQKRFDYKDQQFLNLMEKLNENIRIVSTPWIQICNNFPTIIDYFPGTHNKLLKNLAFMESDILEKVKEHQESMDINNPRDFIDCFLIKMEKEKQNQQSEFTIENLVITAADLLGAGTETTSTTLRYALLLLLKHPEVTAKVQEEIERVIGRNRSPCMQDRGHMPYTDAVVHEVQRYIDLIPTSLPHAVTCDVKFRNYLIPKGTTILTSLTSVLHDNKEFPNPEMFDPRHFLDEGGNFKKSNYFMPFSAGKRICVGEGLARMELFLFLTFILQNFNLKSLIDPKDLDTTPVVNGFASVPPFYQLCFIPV
Chain of Cytochrome P450 2D6 (P10635 whole entry): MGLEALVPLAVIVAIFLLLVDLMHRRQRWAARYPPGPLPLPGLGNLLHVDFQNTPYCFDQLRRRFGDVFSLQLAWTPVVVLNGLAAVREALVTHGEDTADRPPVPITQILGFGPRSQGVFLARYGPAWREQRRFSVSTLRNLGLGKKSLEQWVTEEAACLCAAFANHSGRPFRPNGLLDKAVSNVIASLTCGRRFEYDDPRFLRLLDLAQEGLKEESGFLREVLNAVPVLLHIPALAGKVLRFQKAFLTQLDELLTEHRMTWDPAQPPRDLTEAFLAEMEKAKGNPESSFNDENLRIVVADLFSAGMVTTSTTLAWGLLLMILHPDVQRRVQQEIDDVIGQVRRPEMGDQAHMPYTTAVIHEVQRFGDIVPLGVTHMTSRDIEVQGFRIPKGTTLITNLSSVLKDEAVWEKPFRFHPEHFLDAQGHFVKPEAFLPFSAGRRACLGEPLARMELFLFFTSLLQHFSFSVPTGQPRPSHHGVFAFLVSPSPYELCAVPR

For `Cc1ccc2nc(-c3cccc(Br)c3)cc(C(=O)NCC3CCCO3)c2c1` (centres undefined), in test [1], the EC50 was > 195 µM (not active). For the molecule `NC(=O)c1c(NC(=O)Cc2ccccc2)sc2c1CCN(Cc1ccccc1)C2`, the EC50 in test [2] is > 260 µM (inactive).

For `CCN(CC)C[C@@H](O)CN1CCCCc2nc(C)c(C)cc21`, in test [3], the AC50 is 2.51 µM (inconclusive). For `Cn1c(COc2nnc(-c3ccc(Cl)cc3)c3ccccc23)nc2ccccc21`, the AC50 in test [4] and in test [5] was 14.1 µM (inconclusive) in each case. As for `CCOc1ccc(C2=Nn3c(nnc3-c3cccnc3)SC2)cc1`, the EC50 in test [6] is 16 µM (active); in test [7], > 120 µM (not active); in test [8], 37.8 µM (active).

Turning to `Cc1ccc(S(=O)(=O)NCCOc2nc(N3CCOCC3)nc(N3CCOCC3)n2)cc1`, in test [2], the EC50 was > 260 µM (inactive).

On to `CCN(CC)S(=O)(=O)N1CCC(C(=O)N2CCC3(CC2)OCCO3)CC1`, for which the 50% effective concentration (EC50) in test [6] was > 120 µM (not active); in test [7] it was 17.6 µM (active); in test [8], > 120 µM (not active). Take `CN(CCc1ccccc1)C(=O)c1cc(COc2cccc(C(F)(F)F)c2)on1`: in test [2], the EC50 is > 260 µM (inactive). Regarding `COc1ccc(-n2c(C)c(C)c3c(N)ncnc32)cc1`, the EC50 in test [1] is 37.9 µM (active).

For the molecule `COc1ccc(CCNC(=O)c2ccccc2NC(=O)c2ccco2)cc1OC`, the AC50 in test [5] was 22.4 µM (inconclusive). In the case of `CCCCCn1c(SCc2cccc(C)c2)nc2c1c(=O)[nH]c(=O)n2C`, the EC50 in test [2] is > 260 µM (inactive). As for `Cc1cc(N2CCN(c3ccc(F)cc3)CC2)nc2cc(O)ccc12`, the EC50 in test [1] was > 195 µM (not active). With `CCCc1cc2c(n1CCc1ccc(Cl)cc1)C(C)C1CN(C(=O)c3ccccc3)C(C)(C(=O)OC)C21` (centres undefined), the AC50 in test [5] was 25.1 µM (inconclusive).

Take `CC1CN(C(=O)c2ccccc2)/C(=N/c2cccc(S(=O)(=O)N(C)C)c2)S1` (centres undefined): the EC50 in test [6], in test [7] and in test [8] was > 120 µM (not active) in each case. `Cc1ccc(-n2nc3c(=O)n(CCCC(=O)NCc4ccc(Cl)cc4)nc(C)c3c2C)cc1`: the EC50 in test [6] was 0.94 µM (active); in test [7], > 120 µM (not active); in test [8], 19.5 µM (active). Consider `Cc1cccc(C)c1NC(=O)COc1ccccc1C(=O)Nc1ccc(Br)cn1`, for which the EC50 in test [6] is > 120 µM (not active); in test [7], > 120 µM (not active); in test [8], 94.5 µM (active).

In the case of `CC(C)(CNC(=O)/C=C/c1ccc(F)cc1)CNC(=O)/C=C/c1ccc(F)cc1`, in test [2], the EC50 was 3.75 µM (active). On to `O=C1Nc2ccccc2N(O)N1c1cc(-c2ccccc2Cl)no1`, for which the concentration giving a half-maximal response (EC50) in test [6] is 31.6 µM (active); in test [7], 70.3 µM (active); in test [8] it was > 120 µM (not active). With `O=C(O)CCNS(=O)(=O)c1ccccc1C(F)(F)F`, in test [1], the EC50 is reported as > 195 µM (not active). Same read-out and setting: under `O=C(CN1CCN(C(c2ccccc2)c2ccccc2)CC1)N1CCOCC1` stands > 195 µM (not active); under `COc1ccc(OCCN2C(=O)c3ccccc3C2=O)cc1`, > 195 µM (not active); under `CCc1ccc(C(=O)COC(=O)CNC(=O)c2cccs2)cc1`, > 195 µM (not active). Same read-out and setting: for `CCOC(=O)Cc1csc(NC(=O)Nc2cccs2)n1` the value was > 195 µM (not active).

Turning to `CCCCC(=O)NC(Nc1cc(C)ccn1)(C(=O)OCC)C(F)(F)F` (centres undefined), the AC50 in test [5] was 15.8 µM (inconclusive). Take `CCCS(=O)(=O)N1CCCC(C(=O)NCc2cccnc2)C1` (centres undefined): the values for the concentration at half-maximal activity (AC50) in test [4] and in test [5] were 15.8 µM (inconclusive) and 0.00631 µM (inconclusive), respectively. On to `Cc1cccc(CS(=O)(=O)Cc2ccc(C(=O)NCc3cccs3)o2)c1`, for which the EC50 in test [1] was > 195 µM (not active). As to `COc1ccc(CCNc2ncnc3c2c(C)c(C)n3CCO)cc1OC`, the EC50 in test [2] was > 260 µM (inactive).

For `Cc1ccc(-c2csc3ncnc(-n4nnc5ccccc54)c23)cc1C`, the EC50 is 15 µM (active) in test [6], > 120 µM (not active) in test [7] and > 60 µM (not active) in test [8]. For `CCOC(=O)N1CCN(C(=O)c2ccc3nc4ccc(Cl)cc4c(=O)n3c2)CC1`, in that order: > 120 µM (not active), 37.5 µM (active) and 7.83 µM (active). As to `COC(=O)[C@@]1(Cc2ccc(F)cc2)[C@H]2c3cc(C(=O)N(C)C)n(CC4CC4)c3C[C@H]2CN1C(=O)c1ccccc1`, the concentration at half-maximal activity (AC50) in test [5] is 25.1 µM (inconclusive).

For the molecule `Cn1cc(C(=O)N/N=C/c2cc(Br)cs2)c2ccccc21`, the half-maximal effective concentration (EC50) in test [2] is 42.9 µM (active). For `Cc1cc(C)n(-c2cc(N3CCN(S(=O)(=O)c4ccc5ccccc5c4)CC3)ccc2[N+](=O)[O-])n1`, the concentration for a half-maximal effect (EC50) was 12 µM (active) in test [6], 26.7 µM (active) in test [7] and 15.7 µM (active) in test [8]. For `O=C(CN1CC(c2ccccc2)CC1=O)NCc1ccc(F)cc1` (centres undefined), the EC50 in test [1] is listed as > 195 µM (not active). Consider `COc1ccccc1C(=O)N/C(=C/c1ccc(Br)cc1)C(=O)NCC(=O)O`, for which the half-maximal activity concentration (AC50) in test [5] is 12.6 µM (inconclusive). For the molecule `Cc1cc(C)c(NC(=O)CSc2nncn2-c2cccnc2)c(C)c1`, the EC50 in test [1] was > 195 µM (not active).

Regarding `COc1ccc(NC(=O)CCc2nnc3ccc(NCc4ccc5c(c4)OCO5)nn23)cc1`, in test [2], the EC50 is > 260 µM (inactive). Same read-out and setting: under `C=CCC(NCc1ccco1)c1ccc(OC)c(OC)c1` (centres undefined) stands > 260 µM (inactive). `COc1ccc(Cl)cc1S(=O)(=O)N1CCC(C(=O)NCCc2ccccc2)CC1`: the 50% effective concentration (EC50) in test [1] was > 195 µM (not active).

Turning to `CN1Cc2sc(NC(=S)NC(=O)c3ccccc3)c(C#N)c2CC1(C)C`, in test [1], the concentration for a half-maximal effect (EC50) is 13.9 µM (active). In the case of `N#Cc1ccccc1Cn1cc(C(=O)c2ccccc2F)c2ccccc21`, the results for the EC50 in test [6], in test [7] and in test [8] were 54.6 µM (active), > 120 µM (not active) and > 120 µM (not active), respectively. For `CCOc1cc(/C=C2\C(=N)N3N=C(C)SC3=NC2=O)ccc1OCCOc1ccccc1`, in test [1], the concentration giving a half-maximal response (EC50) is listed as > 195 µM (not active). For `COc1cc(O)cc2c1C(=O)OC(C)CCCC(=O)CCC/C=C\2` (centres undefined), the EC50 in test [2] was > 260 µM (inactive).

Turning to `Cc1ccc(C(C)C)c(OCC(=O)Nc2ccc3c(c2)nc(CCN2CCCCC2)n3C)c1`, the 50% effective concentration (EC50) is 10 µM (active) in test [6], 35.8 µM (active) in test [7] and 11.4 µM (active) in test [8]. As for `O=C1NC(=O)N(c2ccccc2F)C(=O)/C1=C/NCCC1=CCCCC1`, the EC50 in test [2] is > 260 µM (inactive). Regarding `O=c1c(-c2cc(F)cc(F)c2)nc2cnc(N3CCOCC3)nc2n1C[C@H]1CCCO1`, the concentration at half-maximal activity (AC50) in test [5] is 2.51 µM (inconclusive).

For `CC(C)NC(=O)N(O)C1N(Cc2ccc3c(c2)OCO3)C(=S)SC1(C)C` (centres undefined), the EC50 in test [1] was > 195 µM (not active). For `Cc1cc(NC(=O)CCC(=O)N(CC(=O)NC2CCCC2)Cc2cccs2)no1`, in test [2], the EC50 is > 260 µM (inactive).

As for `CC1CC(C)(C)N=C(S)N1CCC(=O)NCc1ccc(Cl)cc1` (centres undefined), the concentration giving a half-maximal response (EC50) in test [6] was > 120 µM (not active); in test [7] it was 33.7 µM (active); in test [8], > 120 µM (not active).
